Results reported in patent US20250289827A1, “MORPHIC FORMS OF A MUTANT BRAF DEGRADER AND METHODS OF MANUFACTURE THEREOF” (C4 THERAPEUTICS, INC., priority 2022, published 2025).

Tests used:
[1] = tested on: BRAF V600E mutant A375-luciferase intracranial model; assay: Efficacy in A375-luciferase intracranial model; details: for Survival rate: as of day 75
Protocol: For the efficacy study, agents were tested in A375 human melanoma cancer cell derived xenografts (CDX). […] The A375 tumor cells were maintained in vitro in DMEM medium supplemented with 10% fetal bovine serum and 1% Penicillin-Streptomycin at 37° C. in an atmosphere of 5% CO2 in air. The tumor cells were routinely subcultured twice weekly. The cells growing in an exponential growth phase were harvested and counted for tumor inoculation.
For this CNS study, A375 cells with a luciferase tag for tracking tumor cell signal, were injected intracranially into 6-8 week old female BALB/c nude mice. […] The mice were anaesthetized, restrained, and sterilized prior to surgery. […] A 2 mm hole was created to the right of the anterior fontanel and 0.5 mm above the coronal on the skull with a cranial drill. Cell suspensions in 20% Matrigel were mixed and aspirated into the injector carefully to avoid bubbles and wiped to avoid extracranial tumorigenesis. The needle was inserted vertically into the cranial hole and the cell mixture was slowly injected for two minutes and held for another minute to decrease the drainage of the cell suspension. The wound was closed, and a subcutaneous injection of 5 mg/kg Meloxicam was given to relieve the pain and continued for three days. The mice were monitored closely until they woke up after the surgery. After inoculation, the animals were checked daily for morbidity and mortality.
The administration of the test agents began three days after inoculation. […] Measurements for the presence of the A375 luciferase signal within the CNS were done with IVIS Lumina III machine. Images were collected twice weekly to follow the growth of the models. The tumor-bearing mice were weighed and intraperitoneally administered luciferin (Perkin Elmer Inc-122799) at a dosage of 150 mg/kg. After ten minutes, mice were pre-anesthetized with the mixture gas of oxygen and isoflurane. The bioluminescence value at fifteen minutes post luciferin injection was recorded as the final value and plotted. The endpoint for individual mice was reached when the mouse body weight decreased by 20% when compared to their starting weight.
The luciferase signal for the mice removed from study were not carried forward, so a sudden drop in luciferase signal over time is due to mice with a heavy tumor burden being terminated and their high luciferase signal not being carried forward.

[2] = tested on: patient-derived xenograft (PDX) of non-small cell lung carcinoma (NSCLC) with BRAF V600E mutation; assay: Efficacy in BRAF V600E NSCLC PDX model; details: day 28
[3] = tested on: A2058 human melanoma xenografts; assay: Efficacy and body weight in A2058 xenografts (Example 39); format: in vivo
Protocol: Compound 1, encorafenib and dabrafenib were administered to BALB/c nude mice bearing A2058 xenografts orally for 28 days. Compound 1 was dosed twice per day (BID) and dosed at 10 mg/kg from day 0. Encorafenib and dabrafenib were dosed daily (QD) from day 1. Encorafenib was dosed at 35 mg/kg. Dabrafenib was dosed at 100 mg/kg.
Each mouse was inoculated subcutaneously at the right flank with A2058 cells (5×106) in 0.2 mL of PBS supplemented with Matrigel (PBS:Matrigel=1:1) for tumor development. Animals were grouped for efficacy study when the average tumor volume reached 130 mm^3 on day 7 after tumor inoculation and 412 mm^3 for PKPD study on day 14.
At the time of routine monitoring, the animals were checked daily for any effects of tumor growth and treatments on normal behavior such as mobility, food and water consumption (by looking only), body weight gain/loss (body weights were measured twice weekly), eye/hair matting and any other abnormal effect as stated in the protocol. Death and observed clinical signs were recorded on the basis of the numbers of animals within each subset.
Prior to the onset of drug treatment, mice were measured for tumor size in two dimensions using a caliper, and the tumor volume (mm^3) was calculated using formula V=0.5 a×b^2 where a and b are the long and short diameters of the tumor in mm, respectively. Mice were randomized into different treatment groups based on the tumor volume.
The major endpoint was to see if the tumor growth could be delayed or mice could be cured. The tumor size was then used for calculations of T/C value. The T/C value (in percent) is an indication of antitumor effectiveness; T and C are the mean volumes of the treated and control groups, respectively on specified day.
Tumor growth inhibition (TGI) was calculated for each group using the formula: TGI (%) 20=[1−(Ti−T0)/(Ci−C0)]×100; Ti is the average tumor volume of a treatment group on a given day, TO is the average tumor volume of the treatment group on the day of treatment start, Ci is the average tumor volume of the vehicle control group on the same day with Ti, and C0 is the average tumor volume of the vehicle group on the day of treatment start.
A one-way ANOVA followed by Dunnett's multiple comparison test was performed to compare tumor volume among vehicle group and treatment groups. All data were analyzed using GraphPad Prism, * indicates p<0.01, **** indicates p<0.0001 and ns indicates p>0.05.

[4] = PG-D24, Compound 1 10 mg/kg BID, encorafenib 35 mg/kg QD, dabrafenib 100 mg/kg QD

CCN(C)S(=O)(=O)Nc1ccc(F)c(Oc2ccc3ncn([C@H]4COC5(CCN(C(=O)CC6(O)CCN(c7cc8c(cc7F)c(N7CCC(=O)NC7=O)nn8C)CC6)CC5)C4)c(=O)c3c2)c1C#N [Compound 1, (3R)-3-[6-[2-cyano-3-[[ethyl(methyl)sulfamoyl]amino]-6-fluorophenoxy]-4-oxoquinazolin-3-yl]-8-[2-[1-[3-(2,4-dioxo-1,3-diazinan-1-yl)-5-fluoro-1-methylindazol-6-yl]-4-hydroxypiperidin-4-yl]acetyl]-1-oxa-8-azaspiro[4.5]decane]
Survival rate ([1]; 10 mg/kg PO BID): 50% | Survival rate ([1]; 30 mg/kg PO BID): 87.5% | Survival time compared to encorafenib ([1]; intracranial melanoma tumors): significant increase in survival time | Bioluminescence signal (tumor burden) ([1]; relative to vehicle control or encorafenib treated mice): dramatically reduced the bioluminescence signal | Tumor response ([2]; 10 mg/kg PO BID plus trametinib 0.1 mg/kg PO QD): tumor regression | Tumor response ([2]; 10 mg/kg PO BID, without trametinib): tumor regression | T/C [3, 4]: 37.06% | TGI [3, 4]: 66.37% | TV (mean tumor volume) [3, 4]: 933 mm^3 | TGI ([3]; PG-D24, Compound 1 10 mg/kg p.o. BID, Encorafenib 35 mg/kg p.o. QD, Dabrafenib 100 mg/kg p.o. QD): 66.37% | Tumor Size on PG-D24 ([3]; PG-D24, Mean ± SEM, Compound 1 10 mg/kg p.o. BID, Encorafenib 35 mg/kg p.o. QD, Dabrafenib 100 mg/kg p.o. QD): 933 ± 119 mm^3 | Antitumor activity compared with vehicle group ([3]; PG-D24, one-way ANOVA, Dunnett): significant antitumor activity | T/C ([3]; PG-D24, treated / control average tumor volume, Compound 1 10 mg/kg p.o. BID, Encorafenib 35 mg/kg p.o. QD, Dabrafenib 100 mg/kg p.o. QD): 37.06% | TGI ([3]; PG-D28, Compound 1 10 mg/kg p.o. BID, Encorafenib 35 mg/kg p.o. QD, Dabrafenib 100 mg/kg p.o. QD): 63.41% | Tumor Size on PG-D28 ([3]; PG-D28, Mean ± SEM, Compound 1 10 mg/kg p.o. BID, Encorafenib 35 mg/kg p.o. QD, Dabrafenib 100 mg/kg p.o. QD): 1139 ± 153 mm^3 | T/C ([3]; PG-D28, treated / control average tumor volume, Compound 1 10 mg/kg p.o. BID, Encorafenib 35 mg/kg p.o. QD, Dabrafenib 100 mg/kg p.o. QD): 39.45% | Tumor Volume Trace over Time ([3]; day 0 (baseline), Mean ± SEM, Compound 1 10 mg/kg p.o. BID × 28 days, Encorafenib 35 mg/kg p.o. QD × 28 days, Dabrafenib 100 mg/kg p.o. QD × 28 days): 130 ± 4 mm^3 | Tumor Volume Trace over Time ([3]; day 3, Mean ± SEM, Compound 1 10 mg/kg p.o. BID, Encorafenib 35 mg/kg p.o. QD, Dabrafenib 100 mg/kg p.o. QD): 167 ± 8 mm^3 | Tumor Volume Trace over Time ([3]; day 7, Mean ± SEM, Compound 1 10 mg/kg p.o. BID, Encorafenib 35 mg/kg p.o. QD, Dabrafenib 100 mg/kg p.o. QD): 205 ± 12 mm^3 | Tumor Volume Trace over Time ([3]; day 10, Mean ± SEM, Compound 1 10 mg/kg p.o. BID, Encorafenib 35 mg/kg p.o. QD, Dabrafenib 100 mg/kg p.o. QD): 267 ± 16 mm^3 | Tumor Volume Trace over Time ([3]; day 14, Mean ± SEM, Compound 1 10 mg/kg p.o. BID, Encorafenib 35 mg/kg p.o. QD, Dabrafenib 100 mg/kg p.o. QD): 414 ± 38 mm^3 | Tumor Volume Trace over Time ([3]; day 17, Mean ± SEM, Compound 1 10 mg/kg p.o. BID, Encorafenib 35 mg/kg p.o. QD, Dabrafenib 100 mg/kg p.o. QD): 562 ± 53 mm^3 | Tumor Volume Trace over Time ([3]; day 21, Mean ± SEM, Compound 1 10 mg/kg p.o. BID, Encorafenib 35 mg/kg p.o. QD, Dabrafenib 100 mg/kg p.o. QD): 711 ± 79 mm^3 | Tumor Volume Trace over Time ([3]; day 24, Mean ± SEM, Compound 1 10 mg/kg p.o. BID, Encorafenib 35 mg/kg p.o. QD, Dabrafenib 100 mg/kg p.o. QD): 933 ± 119 mm^3 | Tumor Volume Trace over Time ([3]; day 28, Mean ± SEM, Compound 1 10 mg/kg p.o. BID, Encorafenib 35 mg/kg p.o. QD, Dabrafenib 100 mg/kg p.o. QD): 1139 ± 153 mm^3
